Source: patent US20240216312A1, “PPAR-AGONISTS FOR USE IN THE TREATMENT OF LIVER FAILURE” (Genfit, priority 2021, published 2024)
Like-named read-outs stand apart in the source and are kept apart here.

Assays:
THP1 macrophages = experiment: LPS (Klebsiella pneumoniae) activation of THP1 macrophages, MCP1 and TNFα secretion (HTRF); type: cell-based, human; details: 24 h, then LPS Klebsiella 6 h; for inhibition at 1 µM / inhibition at 10 µM: Homo sapiens; for inhibition at 1 µM: THP-1, 1 μM; for inhibition at 10 µM: THP-1, 10 μM
Procedure: In order to test the efficacy of the compounds on macrophage activation and pro-inflammatory cytokine production, 2.5×10^4 THP-1 cells were cultured in a 384-well plate and treated with 100 ng/mL PMA (#P8139, Sigma) for 24 h to induce differentiation into macrophages.
Then, medium was removed and FBS-deprived medium containing 1 or 10 μM compound was added for 24 h. Finally, THP1 macrophages were stimulated for 6 h with 100 ng/mL LPS (Klebsiella pneumoniae, #L4268, Sigma-Aldrich).
Monocyte chemoattractant protein 1 (MCP1) and Tumor necrosis α (TNFα) were measured in cell supernatants by Homogeneous Time Resolved Fluorescence (HTRF, #62[…] for TNFα, and 62HCCL2PEG for MCP1, Cisbio). Fluorescence was measured with Infinite 500 (#30019337, Tecan) to determine the concentration of cytokines.
In order to evaluate the effect of the compounds according to the invention on LPS-induced cytokines production by macrophages, the percentage of inhibition over the vehicle condition were calculated for each compound at 1 and 10 μM.

[1] = tested on: LPS/GaIN acute liver failure, C57BL/6J mice; experiment: LPS/GalN model of acute liver failure in mice, hepatic gene expression, serum cytokines and albumin; type: in vivo, mouse; details: mouse serum, 1 mg/kg/day oral 3 days before LPS/GaIN, 4 h after injection
HepG2 cells = experiment: Staurosporin-induced apoptosis in HepG2 cells, caspase 3/7 activity; type: cell-based, human; details: 16 h pre-treatment, then 10 μM staurosporin 4 h; for % Inhibition of caspase activity over mean Veh.: 0.3 μM; for inhibition at 0.3 µM: Homo sapiens, HepG2, 0.3 μM, read-out: % Inhibition of caspase activity over mean Veh.
Procedure: In order to evaluate the effect of the compounds on human hepatocytes that undergo a cellular stress induced by staurosporin, the human hepatoblastoma-derived HepG2 cell line (ECACC, #85011430, Sigma-Aldrich) was cultured in high-glucose DMEM medium (#41965, Gibco, France) supplemented with 10% of fetal bovine serum (FBS, #10270, Gibco), 1% penicillin/streptomycin (#15140, Gibco), 1% sodium pyruvate (#11360, Gibco) and 1% MEM non-essential amino acids (#11140, Gibco) in a 5% CO2 incubator at 37° C.
To evaluate caspase 3/7 activity, which is a surrogate marker of apoptosis, 1.5×10^4 cells were plated in a 384-well plate (#781080, Greiner, France). After cell adherence (8 hours), cells were serum starved for 16 h in the presence of 0.3 μM of compounds or vehicle. Cpd.1 was also used at 3 and 10 μM. Thereafter, cells were treated with 10 μM staurosporin (#569397, Sigma-Aldrich, Germany) supplemented with compound for additional 4 hours before cell lysis and caspase activity measurement.
Caspase 3/7 activity was measured using Caspase Glow™ 3/7 assay (#G8093, Promega, USA). Luminescence was measured using a Spark microplate reader (#30086376, Tecan, USA). The amount of luminescence (RLU) directly correlates with caspase 3/7 activity.

[2] = tested on: LPS-induced endotoxemia, Sprague Dawley rats; experiment: LPS-induced endotoxemia in rats, hepatic markers and serum TNFα; type: in vivo; details: rat, 100 mg/kg/day oral 3 days before LPS, 3 h after LPS
[3] = read-out: % inhibition of MCP1 secretion over mean Veh.
[4] = read-out: % inhibition of TNFα secretion over mean Veh.

CSc1ccc(C(CCc2cc(C)c(OC(C)(C)C(=O)O)c(C)c2)OC(C)C)cc1 (stereo not drawn) [Cpd. 5, 2-[2,6-dimethyl-4-[3-[4-(methylthio)phenyl]-3-isopropyloxypropyl]phenoxy]-2-methylpropanoic acid]
inhibition at 1 µM (THP1 macrophages; [3]): 93%

CC(C)(Oc1ccc(CCNC(=O)c2ccc(Cl)cc2)cc1)C(=O)O [Cpd. 17, bezafibrate, reference compound]
inhibition at 1 µM (THP1 macrophages; [3]): 22% | inhibition at 10 µM (THP1 macrophages; [3]): 54 to 132%

CCOC(CCc1ccc(OC(C)(C)C(=O)O)c(Cl)c1Cl)c1sc(-c2ccc(C(F)(F)F)cc2)nc1C (stereo not drawn) [Cpd. 9, 2-(2,3-dichloro-4-(3-ethoxy-3-(4-methyl-2-(4-(trifluoromethyl)-phenyl)thiazol-5-yl)propyl)phenoxy)-2-methylpropanoic acid]
inhibition at 1 µM (THP1 macrophages; [3]): 86% | inhibition at 1 µM (THP1 macrophages; [4]): 3%

O=C(O)CCCc1cc2cc(Cl)ccc2n1S(=O)(=O)c1ccc2ncsc2c1 [Cpd. 23, lanifibranor, reference compound]
inhibition at 1 µM (THP1 macrophages; [3]): 100% | inhibition at 1 µM (THP1 macrophages; [4]): 15%

CCO[C@H](COc1ccc(C(F)(F)F)cc1)CSc1ccc(OCC(=O)O)c(C)c1.NCCCC[C@H](N)C(=O)O.O.O [Cpd. 20, seladelpar lysine, reference compound]
% inhibition of MCP1 secretion over mean Veh. (THP1 macrophages; 1 μM): 105%

CC[C@@H](Oc1cccc(CN(CCCOc2ccc(OC)cc2)c2nc3ccccc3o2)c1)C(=O)O [Cpd. 18, pemafibrate, reference compound]
decrease of circulating IL10 level compared to vehicle [1]: 52% | serum albumin level [1]: restore albumin concentration

CCc1ccc(CCOc2ccc(CC3SC(=O)NC3=O)cc2)nc1 (stereo not drawn) [Cpd. 21, pioglitazone, reference compound]
inhibition at 1 µM (THP1 macrophages; [3]): 80% | inhibition at 1 µM (THP1 macrophages; [4]): 0% | inhibition at 10 µM (THP1 macrophages; [4]): 11 to 58%

Cc1cc(CCC(=O)c2ccc(C(F)(F)F)cc2)cc(C)c1OC(C)(C)C(=O)O [Cpd. 3, 2-[2,6-dimethyl-4-[3-[4-(trifluoromethyl)phenyl]-3-oxo-propyl]phenoxy]-2-methylpropanoic acid]
inhibition at 1 µM (THP1 macrophages; [3]): 90% | inhibition at 1 µM (THP1 macrophages; [4]): 0% | inhibition at 10 µM (THP1 macrophages; [4]): 11 to 58%

CON=C(CCc1cc(C)c(OC(C)(C)C(=O)O)c(C)c1)c1ccc(OC(F)(F)F)cc1 [Cpd. 7, 2-(4-(3-(methoxyimino)-3-(4-(trifluoromethoxy)phenyl)propyl)-2,6-dimethylphenoxy)-2-methylpropanoic acid]
inhibition at 1 µM (THP1 macrophages; [3]): 95% | inhibition at 1 µM (THP1 macrophages; [4]): 25%

COC(CCc1cc(C)c(OC(C)(C)C(=O)O)c(C)c1)c1ccc(SC)cc1 (stereo not drawn) [Cpd. 4, 2-[2,6-dimethyl-4-[3-[4-(methylthio)phenyl]-3-methoxypropyl]phenoxy]-2-methylpropanoic acid]
% inhibition of MCP1 secretion over mean Veh. (THP1 macrophages; 10 μM, 10 µM): 110% | inhibition at 1 µM (THP1 macrophages; [3]): 100% | % Inhibition of caspase activity over mean Veh. (HepG2 cells): 32% | inhibition at 0.3 µM (HepG2 cells): 26 to 79%

Cc1cc(CCC(=O)c2ccc(OC(F)(F)F)cc2)cc(C)c1OC(C)(C)C(=O)O [Cpd. 2, 2-[2,6-dimethyl-4-[3-[4-(trifluoromethyloxy)phenyl]-3-oxo-propyl]phenoxy]-2-methylpropanoic acid]
inhibition at 1 µM (THP1 macrophages; [3]): 96%

CN(CCOc1ccc(CC2SC(=O)NC2=O)cc1)c1ccccn1 (stereo not drawn) [Cpd. 22, rosiglitazone, reference compound]
% inhibition of MCP1 secretion over mean Veh. (THP1 macrophages; 1 μM): 79% | % inhibition of TNFα secretion over mean Veh. (THP1 macrophages; 1 μM): 36% | % inhibition of MCP1 secretion over mean Veh. (THP1 macrophages; 10 μM, 10 µM): 117% | % inhibition of TNFα secretion over mean Veh. (THP1 macrophages; 10 μM, 10 µM): 11%

Cc1cc(CCC(O)c2ccc(OC(F)(F)F)cc2)cc(C)c1OC(C)(C)C(=O)O (stereo not drawn) [Cpd. 6, 2-(4-(3-hydroxy-3-(4-(trifluoromethoxy)phenyl)propyl)-2,6-dimethylphenoxy)-2-methylpropanoic acid]
inhibition at 1 µM (THP1 macrophages; [3]): 94% | inhibition at 0.3 µM (HepG2 cells): 26 to 79%

COC(CCc1cc(C)c(OC(C)(C)C(=O)O)c(C)c1)c1ccc(Br)cc1 (stereo not drawn) [Cpd. 14, 2-[2,6-dimethyl-4-[3-[4-bromophenyl]-3-methoxypropyl]phenoxy]-2-methylpropanoic acid]
inhibition at 1 µM (THP1 macrophages; [3]): 91% | inhibition at 1 µM (THP1 macrophages; [4]): 18%

CC(C)OC(=O)C(C)(C)Oc1ccc(C(=O)c2ccc(Cl)cc2)cc1 [Cpd. 19, fenofibrate]
reduction of LPS-induced serum TNFα level [2]: 85% | restoration of serum albumin concentration compared to vehicle [2]: 79%

COC(CCc1cc(C)c(OC(C)(C)C(=O)O)c(C)c1)c1ccc(C(F)(F)F)cc1 (stereo not drawn) [Cpd. 13, 2-(4-(3-methoxy-3-(4-(trifluoromethyl)phenyl)propyl)-2,6-dimethylphenoxy)-2-methylpropanoic acid]
% inhibition of MCP1 secretion over mean Veh. (THP1 macrophages; 10 μM, 10 µM): 111% | % inhibition of TNFα secretion over mean Veh. (THP1 macrophages; 10 μM, 10 µM): 18% | inhibition at 1 µM (THP1 macrophages; [3]): 99% | inhibition at 1 µM (THP1 macrophages; [4]): 0% | inhibition at 10 µM (THP1 macrophages; [4]): 11 to 58% | % Inhibition of caspase activity over mean Veh. (HepG2 cells): 79%
